The source of these data is patent US20230233569A1 (Revolution Medicines, Inc., priority 2020, published 2023).

Bounds are passed on as bounds.

Experiment in all cases: Ras-Raf disruption / FRET / MOA assay (BRAF RBD)
What all share (assay type): biochemical

Assay [1] deals with KRAS G12D (Homo sapiens, UniProt P01116+P62937, G12D). To be noted: Ras-Raf disruption, with Cyclophilin A; read-out: KRAS G12D FRET data IC50. From the text: (§1) Disruption of […] Ras-binding Domain (BRAF^RBD) Interaction with K-Ras by Compounds of the Invention (also Called a FRET Assay or an MOA Assay)
(§2) Note—The following protocol describes a procedure for monitoring disruption of K-Ras G12C (GMP-PNP) binding to BRAF^RBD by a compound of the invention. This protocol may also be executed substituting other Ras proteins or nucleotides, such as K-Ras G12D and K-Ras G13D.
(§3) The purpose of this biochemical assay was to measure the ability of test compounds to facilitate ternary complex formation between a nucleotide-loaded K-Ras isoform and Cyclophilin A; the resulting ternary complex disrupts binding to a BRAF^RBD construct, inhibiting K-Ras signaling through a RAF effector. Data is reported as IC50 values.
(§4) In assay buffer containing 25 mM HEPES pH 7.3, 0.002% Tween20, 0.1% BSA, 100 mM NaCl and 5 mM MgCl2, tagless Cyclophilin A, His6-K-Ras-GMPPNP, and GST-BRAF^RBD were combined in a 384-well assay plate at final concentrations of 25 μM, 12.5 nM, and 50 nM, respectively. Compound was present in plate wells as a 10-point 3-fold dilution series starting at a final concentration of 30 μM. After incubation at 25° C. for 3 hours, a mixture of anti-His Eu-W1024 and anti-GST allophycocyanin was then added to assay sample wells at final concentrations of 10 nM and 50 nM, respectively, and the reaction incubated for an additional 1.5 hours. […] Compounds that facilitate disruption of a K-Ras:RAF complex were identified as those eliciting a decrease in the TR-FRET ratio relative to DMSO control wells.

The target in assay [2] is KRAS G12S (Homo sapiens, UniProt P01116+P62937, G12S). To be noted: Ras-Raf disruption, with Cyclophilin A; read-out: KRAS G12S FRET data IC50.
Source text: as §1, §2, §3, §4

The target of assay [3] is KRAS G12V (Homo sapiens, UniProt P01116+P62937, G12V). To be noted: Ras-Raf disruption, with Cyclophilin A; read-out: KRAS G12V FRET data IC50.
Source text: as §1, §2, §3, §4

Assay [4] concerns the target KRAS G13C (Homo sapiens, UniProt P01116+P62937, G13C). To be noted: Ras-Raf disruption, with Cyclophilin A; read-out: KRAS G13C FRET data IC50.
Source text: as §1, §2, §3, §4

The target in assay [5] is KRAS G13D (Homo sapiens, UniProt P01116+P62937, G13D). To be noted: Ras-Raf disruption, with Cyclophilin A; read-out: KRAS G13D FRET data IC50.
Source text: as §1, §2, §3, §4

Assay [6] has as its target KRAS WT (Homo sapiens, UniProt P01116+P62937). Conditions: Ras-Raf disruption, with Cyclophilin A; read-out: KRAS WT FRET data IC50.
Source text: as §1, §2, §3, §4

Assay [7] deals with NRAS G12C (Homo sapiens, UniProt P01111+P62937, G12C). Conditions: NRAS G12C; read-out: NRAS G12C FRET data IC50.
Source text: as §1, §2, §3, §4

Assay [8] addresses KRAS G12C (Homo sapiens, UniProt P01116+P62937, G12C). To be noted: Ras-Raf disruption, with Cyclophilin A; read-out: KRAS G12C FRET data IC50.
Source text: as §1, §2, §3, §4
The purpose of this biochemical assay is to measure the ability of test compounds to facilitate ternary complex formation between a nucleotide-loaded Ras isoform and cyclophilin A; the resulting ternary complex disrupts binding to a BRAF^RBD construct, inhibiting Ras signaling through a RAF effector.
In assay buffer containing 25 mM HEPES pH 7.3, 0.002% Tween20, 0.1% BSA, 100 mM NaCl and 5 mM MgCl2, tagless Cyclophilin A, His6-K-Ras-GMPPNP (or other Ras variant), and GST-BRAF^RBD are combined in a 384-well assay plate at final concentrations of 25 μM, 12.5 nM and 50 nM, respectively. Compound is present in plate wells as a 10-point 3-fold dilution series starting at a final concentration of 30 μM. After incubation at 25° C. for 3 hours, a mixture of Anti-His Eu-W1024 and anti-GST allophycocyanin is then added to assay sample wells at final concentrations of 10 nM and 50 nM, respectively, and the reaction incubated for an additional 1.5 hours. […] Compounds that facilitate disruption of a Ras:RAF complex are identified as those eliciting a decrease in the TR-FRET ratio relative to DMSO control wells.

KRAS G12D, sequence (P01116 1-169 isoform P01116-2 G12D limits assumed): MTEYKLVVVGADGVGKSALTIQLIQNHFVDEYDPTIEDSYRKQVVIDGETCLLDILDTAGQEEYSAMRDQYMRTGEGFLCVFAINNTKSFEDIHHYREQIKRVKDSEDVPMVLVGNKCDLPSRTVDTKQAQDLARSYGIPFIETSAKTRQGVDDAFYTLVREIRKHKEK
KRAS G12D, sequence (P62937 whole entry, the tested form may be a part): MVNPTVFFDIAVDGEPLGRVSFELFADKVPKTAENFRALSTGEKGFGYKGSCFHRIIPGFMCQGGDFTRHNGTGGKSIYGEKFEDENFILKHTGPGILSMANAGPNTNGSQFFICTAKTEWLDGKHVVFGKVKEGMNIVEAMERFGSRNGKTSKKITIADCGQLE
KRAS G13D, sequence (P01116 1-169 isoform P01116-2 G13D limits assumed): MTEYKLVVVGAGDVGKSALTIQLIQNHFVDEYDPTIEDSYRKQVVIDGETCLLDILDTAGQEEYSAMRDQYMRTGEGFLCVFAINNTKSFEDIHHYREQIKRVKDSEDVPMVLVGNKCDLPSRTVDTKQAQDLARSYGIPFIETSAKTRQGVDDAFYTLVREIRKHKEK
KRAS G13D, sequence (P62937 whole entry): as the sequence (P62937 whole entry, the tested form may be a part) above
KRAS G13C, sequence (P01116 1-169 isoform P01116-2 G13C limits assumed): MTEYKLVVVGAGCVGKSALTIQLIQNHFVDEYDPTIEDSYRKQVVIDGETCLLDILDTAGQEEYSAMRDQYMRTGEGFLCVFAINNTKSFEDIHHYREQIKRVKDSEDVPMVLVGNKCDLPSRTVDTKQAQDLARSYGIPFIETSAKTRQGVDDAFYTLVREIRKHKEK
KRAS G13C, sequence (P62937 whole entry): as the sequence (P62937 whole entry, the tested form may be a part) above
KRAS WT, sequence (P01116 1-169 isoform P01116-2 limits assumed): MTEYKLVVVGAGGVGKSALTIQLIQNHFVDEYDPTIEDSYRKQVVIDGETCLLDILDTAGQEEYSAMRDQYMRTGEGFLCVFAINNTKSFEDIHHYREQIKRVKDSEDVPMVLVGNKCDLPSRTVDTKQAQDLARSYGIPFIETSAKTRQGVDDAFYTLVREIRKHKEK
KRAS WT, sequence (P62937 whole entry): as the sequence (P62937 whole entry, the tested form may be a part) above
KRAS G12C, sequence (P01116 1-169 isoform P01116-2 G12C limits assumed): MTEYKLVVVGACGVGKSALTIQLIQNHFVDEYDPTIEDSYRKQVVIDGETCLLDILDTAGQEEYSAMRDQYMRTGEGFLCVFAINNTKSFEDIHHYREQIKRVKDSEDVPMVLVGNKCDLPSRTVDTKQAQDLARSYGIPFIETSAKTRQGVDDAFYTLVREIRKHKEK
KRAS G12C, sequence (P62937 whole entry): as the sequence (P62937 whole entry, the tested form may be a part) above
NRAS G12C, sequence (P01111 whole entry G12C): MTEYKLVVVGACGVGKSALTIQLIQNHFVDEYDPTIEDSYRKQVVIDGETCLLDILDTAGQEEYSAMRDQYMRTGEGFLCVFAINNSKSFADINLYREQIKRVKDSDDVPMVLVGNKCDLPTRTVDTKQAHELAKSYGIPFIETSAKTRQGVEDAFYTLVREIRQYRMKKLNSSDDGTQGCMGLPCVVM
NRAS G12C, sequence (P62937 whole entry): as the sequence (P62937 whole entry, the tested form may be a part) above
KRAS G12V, sequence (P01116 1-169 isoform P01116-2 G12V limits assumed): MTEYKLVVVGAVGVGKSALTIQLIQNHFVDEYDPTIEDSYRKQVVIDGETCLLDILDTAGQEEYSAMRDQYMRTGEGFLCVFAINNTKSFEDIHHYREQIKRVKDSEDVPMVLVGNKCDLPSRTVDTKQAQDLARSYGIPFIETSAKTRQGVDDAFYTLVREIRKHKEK
KRAS G12V, sequence (P62937 whole entry): as the sequence (P62937 whole entry, the tested form may be a part) above
KRAS G12S, sequence (P01116 1-169 isoform P01116-2 G12S limits assumed): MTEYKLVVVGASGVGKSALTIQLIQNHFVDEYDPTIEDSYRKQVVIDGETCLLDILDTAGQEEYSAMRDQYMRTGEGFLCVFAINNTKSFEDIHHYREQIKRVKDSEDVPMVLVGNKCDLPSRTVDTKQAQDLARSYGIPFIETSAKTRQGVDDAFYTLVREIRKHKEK
KRAS G12S, sequence (P62937 whole entry): as the sequence (P62937 whole entry, the tested form may be a part) above

Regarding `CCn1c(-c2cccnc2[C@H](C)OC)c2c3cc(ccc31)-c1cc(O)cc(c1)C[C@H](NC(=O)[C@H](C(C)C)N(C)C(=O)N1CCN(C(=O)[C@H]3CN3)CC1=O)C(=O)N1CCC[C@H](N1)C(=O)OCC(C)(C)C2` (atropisomer, axis not shown) [Example 183], the IC50 in assay [1] lay in the range of 1000 to 10000 nM; in assay [2], 100 to 1000 nM; in assay [3], 100 to 1000 nM; in assay [4], 10 to 100 nM; in assay [5], 100 to 1000 nM; in assay [6], 10 to 100 nM. The IC50 in assay [7] is 10 to 100 nM; in assay [8] it was less than 10 nM.
For `CCn1c(-c2cccnc2[C@H](C)OC)c2c3cc(ccc31)-c1cc(O)cc(c1)C[C@H](NC(=O)[C@H](C(C)C)N(C)C(=O)[C@]1(F)CCN(C(=O)[C@@H]3CN3)C1)C(=O)N1CCC[C@H](N1)C(=O)OCC(C)(C)C2` (atropisomer, axis not shown) [Example 184], the half-maximal inhibitory concentration (IC50) lay in the range of 100 to 1000 nM in assay [1]; 100 to 1000 nM in assay [2]; 100 to 1000 nM in assay [3]; 10 to 100 nM in assay [4]; 100 to 1000 nM in assay [5]; 100 to 1000 nM in assay [6]. The IC50 in assay [7] and in assay [8] was less than 10 nM in each case.
On to `CCn1c(-c2cccnc2[C@H](C)OC)c2c3cc(ccc31)-c1cc(O)cc(c1)C[C@H](NC(=O)[C@H](C(C)C)N(C)C(=O)[C@@]1(F)CCN(C(=O)[C@@H]3CN3)C1)C(=O)N1CCC[C@H](N1)C(=O)OCC(C)(C)C2` (atropisomer, axis not shown) [Example 185], for which the IC50 was in the range of 100 to 1000 nM in assay [1]; 100 to 1000 nM in assay [2]; 100 to 1000 nM in assay [3]; 10 to 100 nM in assay [4]; 100 to 1000 nM in assay [5]; 100 to 1000 nM in assay [6]. Also, the half-maximal inhibitory concentration (IC50) in assay [7] and in assay [8] was 10 to 100 nM each time.
In the case of `CCn1c(-c2cccnc2[C@H](C)OC)c2c3cc(ccc31)-c1cc(O)cc(c1)C[C@H](NC(=O)[C@H](C(C)C)N(C)C(=O)c1ccc(NC(=O)[C@@H]3CN3)cn1)C(=O)N1CCC[C@H](N1)C(=O)OCC(C)(C)C2` (atropisomer, axis not shown) [Example 187], the IC50 in assay [1] was in the range of 100 to 1000 nM; in assay [2], 100 to 1000 nM; in assay [3], 100 to 1000 nM; in assay [4] it was 10 to 100 nM; in assay [5], 100 to 1000 nM; in assay [6] it was 100 to 1000 nM. The half-inhibitory concentration (IC50) in assay [7] and in assay [8] was 100 to 1000 nM throughout.
For the compound `CCn1c(-c2cccnc2[C@H](C)OC)c2c3cc(ccc31)-c1cc(O)cc(c1)C[C@H](NC(=O)[C@H](C(C)C)N(C)C(=O)N1CC(NC(=O)[C@@H]3CN3)C1)C(=O)N1CCC[C@H](N1)C(=O)OCC(C)(C)C2` (atropisomer, axis not shown) [Example 188], the concentration for half-maximal inhibition (IC50) is 100 to 1000 nM in assay [1]; 100 to 1000 nM in assay [2]; 100 to 1000 nM in assay [3]; 10 to 100 nM in assay [4]; 100 to 1000 nM in assay [5]; 100 to 1000 nM in assay [6]. In addition, the half-maximal inhibitory concentration (IC50) in assay [7] and in assay [8] was 10 to 100 nM throughout.
With `CCn1c(-c2cccnc2[C@H](C)OC)c2c3cc(ccc31)-c1cc(O)cc(c1)C[C@H](NC(=O)[C@H](C(C)C)N(C)C(=O)N1CC(NC(=O)[C@H]3CN3)C1)C(=O)N1CCC[C@H](N1)C(=O)OCC(C)(C)C2` (atropisomer, axis not shown) [Example 189], the IC50 was 100 to 1000 nM in assay [1]; 100 to 1000 nM in assay [2]; 10 to 100 nM in assay [3]; 10 to 100 nM in assay [4]; 100 to 1000 nM in assay [5]; 10 to 100 nM in assay [6]. Also, the half-inhibitory concentration (IC50) in assay [7] and in assay [8] was 10 to 100 nM in each case.
`CCn1c(-c2cccnc2[C@H](C)OC)c2c3cc(ccc31)-c1cc(O)cc(c1)C[C@H](NC(=O)[C@H](C(C)C)N(C)C(=O)N1CCCN(C(=O)[C@H]3CN3)CC1)C(=O)N1CCC[C@H](N1)C(=O)OCC(C)(C)C2` (atropisomer, axis not shown) [Example 190]: the IC50 lay within 100 to 1000 nM in assay [1]; 10 to 100 nM in assay [2]; 10 to 100 nM in assay [3]; 10 to 100 nM in assay [4]; 100 to 1000 nM in assay [5]; 10 to 100 nM in assay [6]. Moreover, the IC50 in assay [7] was 10 to 100 nM; in assay [8], less than 10 nM.
For the compound `CCn1c(-c2cccnc2[C@H](C)OC)c2c3cc(ccc31)-c1cc(O)cc(c1)C[C@H](NC(=O)[C@H](C(C)C)N(C)C(=O)[C@H]1CCN(C(=O)[C@@H]3N[C@@H]3C3CC3)C1)C(=O)N1CCC[C@H](N1)C(=O)OCC(C)(C)C2` (atropisomer, axis not shown) [Example 198], the 50% inhibitory concentration (IC50) in assay [1] fell in the range of 10 to 100 nM; in assay [2], 10 to 100 nM; in assay [3] it was 100 to 1000 nM; in assay [4], 10 to 100 nM; in assay [5], 10 to 100 nM; in assay [6] it was 10 to 100 nM. The 50% inhibitory concentration (IC50) in assay [7] and in assay [8] was less than 10 nM each time.
Take `CCn1c(-c2cccnc2[C@H](C)OC)c2c3cc(ccc31)-c1cc(O)cc(c1)C[C@H](NC(=O)[C@H](C(C)C)N(C)C(=O)[C@H]1CCN(C(=O)[C@H]3CN3)C1)C(=O)N1CCC[C@H](N1)C(=O)OCC(C)(C)C2` (single isomer, unassigned) [Example 43B]: the half-inhibitory concentration (IC50) in assay [1] fell in the range of 1000 to 10000 nM; in assay [2], 1000 to 10000 nM; in assay [3], 1000 to 10000 nM; in assay [4], 1000 to 10000 nM; in assay [5], 1000 to 10000 nM; in assay [7] it was 10 to 100 nM. In assay [8], the 50% inhibitory concentration (IC50) was 10 to 100 nM.
On to `CCCN=C=NCCC(=O)N(C)[C@H](C(=O)N[C@H]1Cc2cccc(c2)-c2ccc3c(c2)c(c(-c2cnccc2COC)n3CC)CC(C)(C)COC(=O)[C@@H]2CCCN(N2)C1=O)C(C)C` [22 A and B], for which the IC50 in assay [2] was 1000 to 10000 nM; in assay [3], 1000 to 10000 nM; in assay [4], 100 to 1000 nM; in assay [5] it was more than 10000 nM; in assay [6], 1000 to 10000 nM; in assay [7], 10 to 100 nM. In addition, the IC50 in assay [8] lay in the range of 10 to 100 nM.
`CCn1c(-c2cccnc2[C@H](C)OC)c2c3cc(ccc31)-c1cc(O)cc(c1)C[C@H](NC(=O)[C@H](C(C)C)N(C)C(=O)C1CC3(C1)CN(C(=O)[C@H]1CN1)C3)C(=O)N1CCC[C@H](N1)C(=O)OCC(C)(C)C2` [Example 181]: the IC50 in assay [2] was 100 to 1000 nM; in assay [3], 100 to 1000 nM; in assay [4] it was 10 to 100 nM; in assay [5], 100 to 1000 nM; in assay [6], 100 to 1000 nM; in assay [7], 10 to 100 nM. Besides, the half-inhibitory concentration (IC50) in assay [8] lay in the range of 10 to 100 nM.

One may read the IC50 as the concentration needed to halve the response being measured.
